What all share (assay type): cell-based
For one assay, the target named is T1, mouse GLP2 receptor (Mus musculus, UniProt Q5IXF8).
T1 construct: expressed in transfected cells; host or cells: HEK cells, transient transfection with GeneJuice
T1 sequence (Q5IXF8 1-512): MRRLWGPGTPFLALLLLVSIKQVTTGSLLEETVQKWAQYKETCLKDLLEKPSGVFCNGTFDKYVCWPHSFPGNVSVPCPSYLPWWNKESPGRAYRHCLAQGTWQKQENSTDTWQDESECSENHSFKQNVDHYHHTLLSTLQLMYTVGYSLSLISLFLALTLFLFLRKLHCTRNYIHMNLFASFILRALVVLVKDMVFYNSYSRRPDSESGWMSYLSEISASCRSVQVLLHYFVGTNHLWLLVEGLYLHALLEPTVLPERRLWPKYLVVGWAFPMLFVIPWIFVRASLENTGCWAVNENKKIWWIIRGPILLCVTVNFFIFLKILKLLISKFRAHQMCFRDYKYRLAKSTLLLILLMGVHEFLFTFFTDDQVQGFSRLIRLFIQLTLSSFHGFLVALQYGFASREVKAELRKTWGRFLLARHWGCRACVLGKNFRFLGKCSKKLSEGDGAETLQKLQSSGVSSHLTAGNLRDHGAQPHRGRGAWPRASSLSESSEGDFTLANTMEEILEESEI
In words: cAMP accumulation assay, functional agonism of mouse GLP2 receptor. In short, it runs like this:
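Transiently transfected HEK cells (24 h, frozen, 8000/well) in HBSS with 0.5 mM IBMX exposed to compound concentration series for 45 min at 37 °C. cAMP measured by HTRF after lysis and 1 h at RT; pEC50 from four-parameter concentration-response fit.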

For the next assay, the target named is T2, human GLP1 receptor (Homo sapiens, UniProt P43220).
T2 construct: expressed in transfected cells; host or cells: HEK cells, BacMam virus transduction
T2 sequence (P43220 24-463): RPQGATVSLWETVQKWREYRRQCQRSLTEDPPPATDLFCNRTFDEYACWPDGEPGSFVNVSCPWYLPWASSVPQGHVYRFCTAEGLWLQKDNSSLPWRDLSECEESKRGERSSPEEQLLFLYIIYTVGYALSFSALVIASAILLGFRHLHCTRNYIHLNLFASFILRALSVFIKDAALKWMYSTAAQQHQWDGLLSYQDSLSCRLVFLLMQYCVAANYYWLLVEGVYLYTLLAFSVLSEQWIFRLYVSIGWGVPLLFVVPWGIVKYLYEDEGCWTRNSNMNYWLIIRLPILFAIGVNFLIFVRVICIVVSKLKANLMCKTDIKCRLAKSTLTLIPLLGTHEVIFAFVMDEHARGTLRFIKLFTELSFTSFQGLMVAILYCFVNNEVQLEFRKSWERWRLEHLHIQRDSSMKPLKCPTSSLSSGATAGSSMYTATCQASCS
In words: cAMP accumulation assay, functional agonism of human GLP1 receptor. The settings on record: HEK cells infected with human GLP1 receptor BacMam virus, HTRF cAMP; for Emax: HEK293, read-out: Human GLP-1R agonist cAMP Emax; for EC50: read-out: Human GLP-1R agonist cAMP pEC50 (converted). In short, it runs like this: (§1)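 Frozen HEK cells, previously BacMam-infected 24 h to express either receptor, are stimulated for 45 min at 37° C in IBMX-containing (0.5 mM) HBSS. The reaction is then terminated with HTRF reagents in lysis buffer.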
(In general: Changes in cAMP serve as a functional read-out for many G protein-coupled receptors.)

In a further assay the target is T3, mouse GLP1 receptor (Mus musculus, UniProt O35659).
T3 construct: expressed in transfected cells; host or cells: HEK cells, transient transfection with GeneJuice
T3 sequence (O35659 22-463): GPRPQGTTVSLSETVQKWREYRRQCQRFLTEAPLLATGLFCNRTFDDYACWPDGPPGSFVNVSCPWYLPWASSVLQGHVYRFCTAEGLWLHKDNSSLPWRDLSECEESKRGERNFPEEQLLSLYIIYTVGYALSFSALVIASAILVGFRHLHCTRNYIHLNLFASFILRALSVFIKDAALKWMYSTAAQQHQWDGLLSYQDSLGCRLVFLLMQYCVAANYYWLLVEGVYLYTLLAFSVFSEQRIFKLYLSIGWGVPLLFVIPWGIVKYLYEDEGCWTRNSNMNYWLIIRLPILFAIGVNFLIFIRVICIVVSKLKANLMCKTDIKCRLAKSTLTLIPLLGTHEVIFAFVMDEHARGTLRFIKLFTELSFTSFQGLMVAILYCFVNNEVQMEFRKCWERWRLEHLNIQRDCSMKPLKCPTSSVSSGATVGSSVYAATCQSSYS
In words: cAMP accumulation assay, functional agonism of mouse GLP1 receptor.

The next assay deals with T4, human GLP2 receptor (Homo sapiens, UniProt O95838).
T4 construct: expressed in transfected cells; host or cells: HEK cells, BacMam virus transduction
T4 sequence (O95838 1-553): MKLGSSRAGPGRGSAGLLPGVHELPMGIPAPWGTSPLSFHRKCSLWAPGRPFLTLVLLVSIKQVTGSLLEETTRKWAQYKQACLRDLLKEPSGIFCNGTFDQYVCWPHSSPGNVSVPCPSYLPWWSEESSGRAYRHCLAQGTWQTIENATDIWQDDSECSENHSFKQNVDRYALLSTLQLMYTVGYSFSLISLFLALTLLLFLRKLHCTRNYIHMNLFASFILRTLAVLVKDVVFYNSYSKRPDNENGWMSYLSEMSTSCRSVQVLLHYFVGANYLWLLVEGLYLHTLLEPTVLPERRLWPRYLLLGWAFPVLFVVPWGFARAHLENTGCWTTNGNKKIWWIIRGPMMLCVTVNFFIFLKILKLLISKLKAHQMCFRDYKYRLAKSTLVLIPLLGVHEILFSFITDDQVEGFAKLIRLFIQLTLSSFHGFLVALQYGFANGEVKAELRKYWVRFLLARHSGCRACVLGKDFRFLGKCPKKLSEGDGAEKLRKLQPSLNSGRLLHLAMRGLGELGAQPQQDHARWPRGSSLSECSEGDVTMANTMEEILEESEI
Nature of the assay: cAMP accumulation assay, functional agonism of human GLP2 receptor. The settings on record: HEK cells infected with human GLP2 receptor BacMam virus, HTRF cAMP; for Emax: HEK293, read-out: Human GLP-2R agonist cAMP Emax; for EC50: read-out: Human GLP-2R agonist cAMP pEC50 (converted). Put shortly: as §1

Where two headings read alike, the source gives them in different places. Positions of bridges follow the written chain, without caps; N, C: chain ends. Non-standard residues stand in square brackets, D forms with d. Residues, ends and D or L forms follow the SMILES beside them. *: point of attachment. Malonyl(2,2-Me2,histaminyl) = CC(C)(C(=O)NCCc1cnc[nH]1)C(=O)*; Ala(1H-tetrazol-5-yl) = N[C@@H](Cc1nnn[nH]1)C(=O)O; Nle = CCCC[C@H](N)C(=O)O

As to `CCCC[C@H](NC(=O)[C@H](CCC(=O)O)NC(=O)[C@H](CC(=O)O)NC(=O)[C@H](CO)NC(=O)[C@H](Cc1ccccc1)NC(=O)[C@H](CO)NC(=O)CNC(=O)[C@H](Cc1nn[nH]n1)NC(=O)C(C)(C)C(=O)NCCc1c[nH]cn1)C(=O)N[C@H](Cc1ccccc1)C(=O)N[C@H](C(=O)N[C@H](C(=O)N[C@@H](CC(C)C)C(=O)N[C@@H](CC(=O)O)C(=O)N[C@H]1CC(=O)NCCCC[C@@H](C(=O)N[C@@H](CC(=O)O)C(=O)N[C@@H](Cc2ccccc2)C(=O)N[C@H](C(=O)N[C@@H](CC(N)=O)C(=O)N[C@@H](Cc2c[nH]c3ccccc23)C(=O)N[C@@H](CC(C)C)C(=O)N[C@H](C(=O)N[C@@H](CCC(N)=O)C(=O)N[C@H](C(=O)N[C@@H](CCCCN)C(=O)N[C@H](C(=O)N[C@H](C(=O)N[C@@H](Cc2ccccc2)C(N)=O)[C@@H](C)O)[C@@H](C)CC)[C@@H](C)O)[C@@H](C)CC)[C@@H](C)CC)NC(=O)[C@H](C)NC(=O)[C@H](C)NC(=O)[C@H](CCCCN)NC1=O)[C@@H](C)CC)[C@@H](C)O` [Example 95] ({Malonyl(2,2-Me2,histaminyl)}-[Ala(1H-tetrazol-5-yl)]GSFSDE[Nle][dF]TILDDKAAKDFINWLIQTKITF-NH2; lactam 14-18; C-terminus assumed), the Emax is 102% at mouse GLP2 receptor (HEK293, HEK cells transiently transfected with mouse GLP2 receptor, HTRF cAMP, read-out: Mouse GLP-2R agonist cAMP Emax); 97% on human GLP1 receptor; 94.7% on mouse GLP1 receptor (HEK293, HEK cells transiently transfected with mouse GLP1 receptor, HTRF cAMP, read-out: Mouse GLP-1R agonist cAMP Emax); 102% at human GLP2 receptor. Further, the EC50 is 0.00794 nM on mouse GLP2 receptor (HEK cells transiently transfected with mouse GLP2 receptor, HTRF cAMP, read-out: Mouse GLP-2R agonist cAMP pEC50 (converted)); 3.98 nM on human GLP1 receptor; 5.01 nM at mouse GLP1 receptor (HEK cells transiently transfected with mouse GLP1 receptor, HTRF cAMP, read-out: Mouse GLP-1R agonist cAMP pEC50 (converted)); 0.00794 nM at human GLP2 receptor.
For the compound `CCCC[C@H](NC(=O)[C@H](CCC(=O)O)NC(=O)[C@H](CC(=O)O)NC(=O)[C@H](CO)NC(=O)[C@H](Cc1ccccc1)NC(=O)[C@H](CO)NC(=O)CNC(=O)[C@H](Cc1nn[nH]n1)NC(=O)C(C)(C)C(=O)NCCc1c[nH]cn1)C(=O)N[C@H](Cc1ccccc1)C(=O)N[C@H](C(=O)N[C@H](C(=O)N[C@@H](CC(C)C)C(=O)N[C@@H](CC(=O)O)C(=O)N[C@H]1CCC(=O)NCCCC[C@@H](C(=O)N[C@@H](CC(=O)O)C(=O)N[C@@H](Cc2ccccc2)C(=O)N[C@H](C(=O)N[C@@H](CC(N)=O)C(=O)N[C@@H](Cc2c[nH]c3ccccc23)C(=O)N[C@@H](CC(C)C)C(=O)N[C@H](C(=O)N[C@@H](CCC(N)=O)C(=O)N[C@H](C(=O)N[C@@H](CCCCN)C(=O)N[C@H](C(=O)N[C@H](C(=O)N[C@@H](Cc2ccccc2)C(N)=O)[C@@H](C)O)[C@@H](C)CC)[C@@H](C)O)[C@@H](C)CC)[C@@H](C)CC)NC(=O)[C@H](C)NC(=O)[C@H](C)NC(=O)[C@H](CCCCN)NC1=O)[C@@H](C)CC)[C@@H](C)O` [Example 96] ({Malonyl(2,2-Me2,histaminyl)}-[Ala(1H-tetrazol-5-yl)]GSFSDE[Nle][dF]TILDEKAAKDFINWLIQTKITF-NH2; lactam 14-18), the EC50 on mouse GLP2 receptor was 0.794 nM; on human GLP1 receptor it was 0.501 nM; at mouse GLP1 receptor, 0.794 nM; at human GLP2 receptor, 0.00631 nM. The maximal response (Emax) on mouse GLP2 receptor (HEK293, read-out: Mouse GLP-2R agonist cAMP Emax) was determined as 101%; on human GLP1 receptor, 96.4%; on mouse GLP1 receptor (HEK293, read-out: Mouse GLP-1R agonist cAMP Emax), 96.1%; on human GLP2 receptor, 101%.

Broadly, the Emax is the greatest response seen or fitted, relative to the assay's reference.
